Assay results published in patent publication US10087229B2, “Peptide compound” (TAKEDA PHARMACEUTICAL COMPANY LIMITED, priority 2013, dated 2018).
Square brackets hold non-standard residues; d marks the D form. Peptide text beside a SMILES is read from it. αMeF = C[C@](N)(Cc1ccccc1)C(=O)O; Aib = CC(C)(N)C(=O)O

Test system: male C57BL/6J mouse
Assay: 2-days continuous subcutaneous administration test (feeding suppressive activity)
Format: in vivo
Conditions: 10 nmol/kg/day, subcutaneous Alzet pump, 2-days cumulative food consumption, control (solvent alone) = 0%
Description: 2-Days Continuous Subcutaneous Administration Test
The feeding suppressive activity of a test compound was examined by the method described below.
The test compound was dissolved in a solvent (50% DMSO) so that sustained release would occur at 10 nmol/kg/day, and the solution was filled in the Alzet Pump (DURECT Corporation, model: 1003D). The pump thus filled with the solution to be administered was immersed in physiological saline for priming, and then used. The pump was embedded by the following method. Each male C57BL/6J mouse at 8-9 weeks of age (20-26° C., allowed to take food and water ad libitum; 12-hour bright-12-hour dark cycle) was anesthetized; the skin in the upper back thereof was incised, and the above-mentioned pump was embedded subcutaneously; the incision was sutured. After weighing, this mouse was returned to the rearing cage (reared alone), and given previously weighed food; food consumption as of 2 days after the start of administration was measured. The food consumption was calculated by subtracting the amount of remaining food from the weight of the food given on the day of the start of administration. When the food consumption of a control group receiving administration of the solvent alone was regarded as a suppression rate of 0%, the feeding suppressive activity of each test compound was evaluated on the basis of 2-days cumulative food consumption after the start of administration. The food intake suppression rate (%) of the test compound was defined as (Food consumption of the control group−Food consumption of the test compound-administered group)/Food consumption of the control group×100.

SMILES | Food intake suppression (%)
CC[C@H](C)[C@H](NC(=O)[C@H](C)NC(=O)[C@H](Cc1ccc(O)cc1)NC(=O)[C@H](CC(=O)O)NC(=O)[C@H](CO)NC(=O)[C@@H](NC(=O)[C@](C)(Cc1ccccc1)NC(=O)[C@@H](NC(=O)CNC(=O)[C@H](CCC(=O)O)NC(=O)C(C)(C)NC(=O)[C@@H](N)Cc1ccc(O)cc1)[C@@H](C)O)[C@@H](C)O)C(=O)NC(C)(C)C(=O)N[C@@H](CC(C)C)C(=O)N[C@@H](CC(=O)O)C(=O)N[C@@H](CCCCN)C(=O)N[C@@H](CCC(N)=O)C(=O)N[C@@H](C)C(=O)N[C@@H](CCC(N)=O)C(=O)N[C@@H](C)C(=O)N[C@@H](CCC(=O)O)C(=O)N[C@@H](Cc1ccccc1)C(=O)N[C@H](C(=O)N[C@@H](CCCCN)C(=O)N[C@@H](Cc1c[nH]c2ccccc12)C(=O)N[C@@H](CC(C)C)C(=O)N[C@@H](CC(C)C)C(=O)N[C@@H](CCCCN)C(=O)NCC(=O)NCC(=O)N1CCC[C@H]1C(=O)N[C@@H](CO)C(=O)N[C@@H](CO)C(=O)NCC(=O)N[C@@H](C)C(=O)N1CCC[C@H]1C(=O)N1CCC[C@H]1C(=O)N1CCC[C@H]1C(=O)N[C@@H](CO)C(=O)N[C@@H](CCCCN)C(N)=O)C(C)C [Example 1] (H-Y[Aib]EGT[αMeF]TSDYAI[Aib]LDKQAQAEFVKWLLKGGPSSGAPPPSK-NH2) | 42.68
CC[C@H](C)[C@H](NC(=O)[C@H](C)NC(=O)[C@H](Cc1ccc(O)cc1)NC(=O)[C@H](CC(=O)O)NC(=O)[C@H](CO)NC(=O)[C@@H](NC(=O)[C@](C)(Cc1ccccc1)NC(=O)[C@@H](NC(=O)CNC(=O)[C@H](CCC(=O)O)NC(=O)C(C)(C)NC(=O)[C@@H](N)Cc1ccc(O)cc1)[C@@H](C)O)[C@@H](C)O)C(=O)NC(C)(C)C(=O)N[C@@H](CC(C)C)C(=O)N[C@@H](CC(=O)O)C(=O)N[C@@H](CCCCN)C(=O)N[C@@H](CCC(N)=O)C(=O)N[C@@H](C)C(=O)N[C@@H](CCC(N)=O)C(=O)N[C@@H](CO)C(=O)N[C@@H](CCC(=O)O)C(=O)N[C@@H](Cc1ccccc1)C(=O)N[C@H](C(=O)N[C@@H](CCCCN)C(=O)N[C@@H](Cc1c[nH]c2ccccc12)C(=O)N[C@@H](CC(C)C)C(=O)N[C@@H](CC(C)C)C(=O)N[C@@H](CCCCN)C(=O)NCC(=O)NCC(=O)N1CCC[C@H]1C(=O)N[C@@H](CO)C(=O)N[C@@H](CO)C(=O)NCC(=O)N[C@@H](C)C(=O)N1CCC[C@H]1C(=O)N1CCC[C@H]1C(=O)N1CCC[C@H]1C(=O)N[C@@H](CO)C(=O)N[C@@H](CCCCN)C(N)=O)C(C)C [Example 3] (H-Y[Aib]EGT[αMeF]TSDYAI[Aib]LDKQAQSEFVKWLLKGGPSSGAPPPSK-NH2) | 46.49
CC[C@H](C)[C@H](NC(=O)C(C)(C)NC(=O)[C@H](Cc1ccc(O)cc1)NC(=O)[C@H](CC(=O)O)NC(=O)[C@H](CO)NC(=O)[C@@H](NC(=O)[C@](C)(Cc1ccccc1)NC(=O)[C@@H](NC(=O)CNC(=O)[C@H](CCC(=O)O)NC(=O)C(C)(C)NC(=O)[C@@H](N)Cc1ccc(O)cc1)[C@@H](C)O)[C@@H](C)O)C(=O)NC(C)(C)C(=O)N[C@@H](CC(C)C)C(=O)N[C@@H](CC(=O)O)C(=O)N[C@@H](CCCCN)C(=O)N[C@@H](CCC(N)=O)C(=O)N[C@@H](C)C(=O)N[C@@H](CCC(N)=O)C(=O)N[C@@H](CO)C(=O)N[C@@H](CCC(=O)O)C(=O)N[C@@H](Cc1ccccc1)C(=O)N[C@H](C(=O)N[C@@H](CCCCN)C(=O)N[C@@H](Cc1c[nH]c2ccccc12)C(=O)N[C@@H](CC(C)C)C(=O)N[C@@H](CC(C)C)C(=O)N[C@@H](CCCCN)C(=O)NCC(=O)NCC(=O)N1CCC[C@H]1C(=O)N[C@@H](CO)C(=O)N[C@@H](CO)C(=O)NCC(=O)N[C@@H](C)C(=O)N1CCC[C@H]1C(=O)N1CCC[C@H]1C(=O)N1CCC[C@H]1C(=O)N[C@@H](CO)C(=O)N[C@@H](CCCCN)C(N)=O)C(C)C [Example 4] (H-Y[Aib]EGT[αMeF]TSDY[Aib]I[Aib]LDKQAQSEFVKWLLKGGPSSGAPPPSK-NH2) | 57.01
CC[C@H](C)[C@H](NC(=O)[C@H](C)NC(=O)[C@H](Cc1ccc(O)cc1)NC(=O)[C@H](CC(=O)O)NC(=O)[C@H](CO)NC(=O)[C@@H](NC(=O)[C@](C)(Cc1ccccc1)NC(=O)[C@@H](NC(=O)CNC(=O)[C@H](CCC(=O)O)NC(=O)C(C)(C)NC(=O)[C@@H](N)Cc1ccc(O)cc1)[C@@H](C)O)[C@@H](C)O)C(=O)NC(C)(C)C(=O)N[C@@H](CC(C)C)C(=O)N[C@@H](CC(=O)O)C(=O)N[C@@H](CCCCN)C(=O)N[C@@H](CCC(N)=O)C(=O)N[C@@H](C)C(=O)N[C@@H](CCC(N)=O)C(=O)N[C@@H](C)C(=O)N[C@@H](CCC(=O)O)C(=O)N[C@@H](Cc1ccccc1)C(=O)N[C@H](C(=O)N[C@@H](CCCCN)C(=O)N[C@@H](Cc1c[nH]c2ccccc12)C(=O)N[C@@H](CC(C)C)C(=O)N[C@@H](CC(C)C)C(=O)N[C@@H](CCCCN)C(=O)NCC(=O)NCC(=O)N1CCC[C@H]1C(=O)N[C@@H](CO)C(=O)N[C@@H](CO)C(=O)NCC(=O)N[C@@H](C)C(=O)N1CCC[C@H]1C(=O)N1CCC[C@H]1C(=O)N1CCC[C@H]1C(=O)N[C@@H](CO)C(N)=O)C(C)C [Example 5] (H-Y[Aib]EGT[αMeF]TSDYAI[Aib]LDKQAQAEFVKWLLKGGPSSGAPPPS-NH2) | 60.99
CC[C@H](C)[C@H](NC(=O)C(C)(C)NC(=O)[C@H](Cc1ccc(O)cc1)NC(=O)[C@H](CC(=O)O)NC(=O)[C@H](CO)NC(=O)[C@@H](NC(=O)[C@](C)(Cc1ccccc1)NC(=O)[C@@H](NC(=O)CNC(=O)[C@H](CCC(=O)O)NC(=O)C(C)(C)NC(=O)[C@@H](N)Cc1ccc(O)cc1)[C@@H](C)O)[C@@H](C)O)C(=O)NC(C)(C)C(=O)N[C@@H](CC(C)C)C(=O)N[C@@H](CC(=O)O)C(=O)N[C@@H](CCCCN)C(=O)N[C@@H](CCC(N)=O)C(=O)N[C@@H](C)C(=O)N[C@@H](CCC(N)=O)C(=O)N[C@@H](C)C(=O)N[C@@H](CCC(=O)O)C(=O)N[C@@H](Cc1ccccc1)C(=O)N[C@H](C(=O)N[C@@H](CCCCN)C(=O)N[C@@H](Cc1c[nH]c2ccccc12)C(=O)N[C@@H](CC(C)C)C(=O)N[C@@H](CC(C)C)C(=O)N[C@@H](CCCCN)C(=O)NCC(=O)NCC(=O)N1CCC[C@H]1C(=O)N[C@@H](CO)C(=O)N[C@@H](CO)C(=O)NCC(=O)N[C@@H](C)C(=O)N1CCC[C@H]1C(=O)N1CCC[C@H]1C(=O)N1CCC[C@H]1C(=O)N[C@@H](CO)C(N)=O)C(C)C [Example 6] (H-Y[Aib]EGT[αMeF]TSDY[Aib]I[Aib]LDKQAQAEFVKWLLKGGPSSGAPPPS-NH2) | 65.20
CC[C@H](C)[C@H](NC(=O)C(C)(C)NC(=O)[C@H](Cc1ccc(O)cc1)NC(=O)[C@H](CC(=O)O)NC(=O)[C@H](CO)NC(=O)[C@@H](NC(=O)[C@](C)(Cc1ccccc1)NC(=O)[C@@H](NC(=O)CNC(=O)[C@H](CCC(=O)O)NC(=O)C(C)(C)NC(=O)[C@@H](N)Cc1ccc(O)cc1)[C@@H](C)O)[C@@H](C)O)C(=O)NC(C)(C)C(=O)N[C@@H](CC(C)C)C(=O)N[C@@H](CC(=O)O)C(=O)N[C@@H](CCCCN)C(=O)N[C@@H](CCC(N)=O)C(=O)N[C@@H](C)C(=O)N[C@@H](CCC(N)=O)C(=O)N[C@@H](CO)C(=O)N[C@@H](CCC(=O)O)C(=O)N[C@@H](Cc1ccccc1)C(=O)N[C@H](C(=O)N[C@@H](CCCCN)C(=O)N[C@@H](Cc1c[nH]c2ccccc12)C(=O)N[C@@H](CC(C)C)C(=O)N[C@@H](CC(C)C)C(=O)N[C@@H](CCCCN)C(=O)NCC(=O)NCC(=O)N1CCC[C@H]1C(=O)N[C@@H](CO)C(=O)N[C@@H](CO)C(=O)NCC(=O)N[C@@H](C)C(=O)N1CCC[C@H]1C(=O)N1CCC[C@H]1C(=O)N1CCC[C@H]1C(=O)N[C@@H](CO)C(N)=O)C(C)C [Example 8] (H-Y[Aib]EGT[αMeF]TSDY[Aib]I[Aib]LDKQAQSEFVKWLLKGGPSSGAPPPS-NH2) | 48.34
